# Target: human TRPA1 (Homo sapiens (Human), UniProt O75762)
# Assay: Measurement of TRPA1 antagonist activity (1): intracellular calcium increase
# Format: cell-based
# Conditions: 293T cells transfected with human TRPA1 expression plasmid; allylisothiocyanate 20 μM stimulation; intracellular calcium fluorescence; read-out: hTRPA1 IC50
# Method in brief: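 HEK293T cells transiently transfected with full-length human TRPA1, loaded with Calcium4 dye in HBSS/20 mM HEPES pH 7.2. Test compound preincubated 10 min, then allylisothiocyanate added at 20 μM final and fluorescence change followed for 5 min. IC50 from sigmoid fit of percent inhibition relative to agonist and buffer controls.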
# Chain of human TRPA1 (O75762 whole entry): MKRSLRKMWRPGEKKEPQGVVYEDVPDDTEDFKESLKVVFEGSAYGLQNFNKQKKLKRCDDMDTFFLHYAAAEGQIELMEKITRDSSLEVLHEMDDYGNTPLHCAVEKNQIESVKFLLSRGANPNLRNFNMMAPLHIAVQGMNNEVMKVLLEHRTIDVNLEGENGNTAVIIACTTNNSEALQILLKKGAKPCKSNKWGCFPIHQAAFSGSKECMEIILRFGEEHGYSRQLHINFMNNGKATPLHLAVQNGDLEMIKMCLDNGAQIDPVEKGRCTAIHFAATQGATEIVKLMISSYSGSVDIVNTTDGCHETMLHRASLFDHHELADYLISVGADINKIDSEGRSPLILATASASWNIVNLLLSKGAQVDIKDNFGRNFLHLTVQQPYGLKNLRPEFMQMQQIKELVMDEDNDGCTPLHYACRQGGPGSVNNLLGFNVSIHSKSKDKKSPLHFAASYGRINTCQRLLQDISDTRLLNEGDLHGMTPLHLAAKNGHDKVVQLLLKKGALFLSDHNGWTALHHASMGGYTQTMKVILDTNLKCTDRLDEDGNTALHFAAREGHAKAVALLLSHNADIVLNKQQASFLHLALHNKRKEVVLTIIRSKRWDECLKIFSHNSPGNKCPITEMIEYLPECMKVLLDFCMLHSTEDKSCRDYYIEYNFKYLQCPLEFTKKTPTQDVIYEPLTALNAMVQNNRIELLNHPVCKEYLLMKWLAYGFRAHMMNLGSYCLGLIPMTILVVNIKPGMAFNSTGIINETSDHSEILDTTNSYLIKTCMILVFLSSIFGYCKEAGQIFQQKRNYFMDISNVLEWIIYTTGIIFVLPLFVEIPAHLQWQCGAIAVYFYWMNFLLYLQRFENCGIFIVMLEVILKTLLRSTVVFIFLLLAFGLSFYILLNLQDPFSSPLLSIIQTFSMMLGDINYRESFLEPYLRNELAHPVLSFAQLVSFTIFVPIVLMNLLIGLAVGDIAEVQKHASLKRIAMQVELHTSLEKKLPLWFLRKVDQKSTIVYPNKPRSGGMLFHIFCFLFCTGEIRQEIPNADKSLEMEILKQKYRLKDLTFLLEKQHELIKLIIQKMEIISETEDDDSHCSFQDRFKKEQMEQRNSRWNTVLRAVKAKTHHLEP
row,Structure (SMILES),IC50 [nM]
1,"O=C(NCc1cc(-c2ccc(C(F)(F)F)nc2)cnn1)[C@@H]1CCCN1S(=O)(=O)c1cc2ccccc2o1 [Example 211, (2S)-1-(benzofuran-2-ylsulfonyl)-N-[[5-[6-(trifluoromethyl)-3-pyridyl]pyridazin-3-yl]methyl]pyrrolidine-2-carboxamide]",72
2,"C[C@H](NS(=O)(=O)c1cc2cc(F)ccc2o1)C(=O)NCc1cccc(-c2cnc(C(F)(F)F)nc2)c1 [Example 233, (2S)-2-[(5-fluorobenzofuran-2-yl)sulfonylamino]-N-[[3-[2-(trifluoromethyl)pyrimidin-5-yl]phenyl]methyl]propanamide]",10
3,"C[C@H](NS(=O)(=O)c1cc2cc(F)ccc2o1)C(=O)NCc1cc(-c2ccc(C(F)(F)F)cc2)ncn1 [Example 109, (2S)-2-[(5-fluorobenzofuran-2-yl)sulfonylamino]-N-[[6-[4-(trifluoromethyl)phenyl]pyrimidin-4-yl]methyl]propanamide]",4.7
4,"O=C(NCc1cc(-c2ccc(C(F)(F)F)cn2)ccn1)[C@@H]1CCN1S(=O)(=O)c1cc2cc(F)ccc2o1 [Example 230, (2S)-1-(5-fluorobenzofuran-2-yl)sulfonyl-N-[[4-[5-(trifluoromethyl)-2-pyridyl]-2-pyridyl]methyl]azetidine-2-carboxamide]",4.4
5,"O=C(NCc1ccnc(-c2ccc(F)cc2O)c1)[C@@H]1CCCN1S(=O)(=O)c1cc2cc(F)ccc2o1 [Example 136, (2S)-1-(5-fluorobenzofuran-2-yl)sulfonyl-N-[[2-(4-fluoro-2-hydroxy-phenyl)-4-pyridyl]methyl]pyrrolidine-2-carboxamide]",13
6,"C#CCN([C@@H](C)C(=O)NCc1ccnc(-c2ccc(C(F)(F)F)cc2O)c1)S(=O)(=O)c1cc2cc(F)ccc2o1 [Example 275, (2S)-2-[(5-fluorobenzofuran-2-yl)sulfonyl-2-propynylamino]-N-[[2-[2-hydroxy-4-(trifluoromethyl)phenyl]-4-pyridyl]methyl]propanamide]",3.8
7,"C[C@H](NS(=O)(=O)c1cc2cc(F)ccc2o1)C(=O)NCc1cccc(-c2ccc(C(F)(F)F)cn2)c1 [Example 107, (2S)-2-[(5-fluorobenzofuran-2-yl)sulfonylamino]-N-[[3-[5-(trifluoromethyl)-2-pyridyl]phenyl]methyl]propanamide]",6.9
8,"N#Cc1cncc(-c2cccc(CNC(=O)[C@@H]3CCCN3S(=O)(=O)c3cc4cc(F)ccc4o3)c2)c1 [Example 163, (2S)-N-[[3-(5-cyano-3-pyridyl)phenyl]methyl]-1-(5-fluorobenzofuran-2-yl)sulfonyl-pyrrolidine-2-carboxamide]",31
9,"O=C(NCc1cccc(-c2ccc(C(F)(F)F)nc2)c1)[C@@H]1CCCN1S(=O)(=O)c1cc2c(F)cccc2o1 [Example 92, (2S)-1-(4-fluorobenzofuran-2-yl)sulfonyl-N-[[3-[6-(trifluoromethyl)-3-pyridyl]phenyl]methyl]pyrrolidine-2-carboxamide]",2.2
10,"O=C(NCc1ccnc(-c2ccc(OC(F)(F)F)cc2)c1)[C@@H]1CCCN1S(=O)(=O)c1cc2cc(F)ccc2o1 [Example 129, (2S)-1-(5-fluorobenzofuran-2-yl)sulfonyl-N-[[2-[4-(trifluoromethoxy)phenyl]-4-pyridyl]methyl]pyrrolidine-2-carboxamide]",0.61
11,"O=C(NCc1cc(-c2ccc(C(F)(F)F)cc2)ncn1)[C@@H]1CCCN1S(=O)(=O)c1cc2ccccc2o1 [Example 84, (2S)-1-(benzofuran-2-ylsulfonyl)-N-[[6-[4-(trifluoromethyl)phenyl]pyrimidin-4-yl]methyl]pyrrolidine-2-carboxamide]",1.2
12,"O=C(NCc1cccc(OCc2ccc(C(F)(F)F)cc2)c1)[C@@H]1C=CCN1S(=O)(=O)c1cc2ccccc2o1 [Example 44, (2S)-1-(benzofuran-2-ylsulfonyl)-N-[[3-[[4-(trifluoromethyl)phenyl]methoxy]-phenyl]methyl]-2,5-dihydropyrrole-2-carboxamide]",1.7
